Bridge positions count the residues as written; N and C are the ends. Square brackets hold non-standard residues; d marks the D form. Peptide text beside a SMILES is read from it. Hyp = O=C(O)[C@@H]1C[C@@H](O)CN1
Legend:
[1] = Physical stability of peptide analogues (Thioflavin T fibrillation); type: physicochemical; details: maximum ThT signal normalized between hAMY maximum and buffer background; 40° C., shaking, four days; pH 7 per table title
Outline: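 Peptides in 50 mM sodium acetate pH 4 or 50 mM sodium phosphate pH 7 were preincubated 1 h, mixed with 4 μM ThT, held at 40° C with 700 rpm shaking before each read. Fluorescence (ex 450/em 480 nm) every 10 min for four days; LOESS-smoothed maximum signal normalized in percent between hAMY and buffer.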

hAMY3 receptor = target: T1, hAMY3 receptor (Homo sapiens, UniProt O60896+P30988); experiment: cAMP assay for in vitro receptor activation, hAMY3-R; type: cell-based; details: cAMP assay, hAMY3 receptor; read-out: hAMY3R EC50
T1 sequence (P30988 25-474): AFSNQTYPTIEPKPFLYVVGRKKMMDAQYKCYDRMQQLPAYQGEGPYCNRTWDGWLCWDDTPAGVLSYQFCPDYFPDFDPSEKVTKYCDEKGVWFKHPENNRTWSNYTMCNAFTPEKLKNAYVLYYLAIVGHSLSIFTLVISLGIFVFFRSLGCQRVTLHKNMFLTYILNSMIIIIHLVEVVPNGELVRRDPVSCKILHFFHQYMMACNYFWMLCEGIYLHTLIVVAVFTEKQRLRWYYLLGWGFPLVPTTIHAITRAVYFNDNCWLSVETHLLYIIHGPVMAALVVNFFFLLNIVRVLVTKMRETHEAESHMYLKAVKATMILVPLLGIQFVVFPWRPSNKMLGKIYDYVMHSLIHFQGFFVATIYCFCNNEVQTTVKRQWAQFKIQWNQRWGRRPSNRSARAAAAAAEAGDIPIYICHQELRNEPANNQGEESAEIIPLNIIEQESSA
T1 sequence (O60896 24-148 partner): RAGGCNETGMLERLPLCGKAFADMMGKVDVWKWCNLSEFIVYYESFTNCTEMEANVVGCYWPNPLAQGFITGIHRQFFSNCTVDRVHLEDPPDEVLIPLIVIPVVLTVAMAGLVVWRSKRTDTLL
Outline: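 Accumulated cAMP was detected by time-resolved FRET one hour after reagent addition. Beforehand, hAMY3-R-overexpressing monoclonal cells (2000/well, DPBS, 0.05% casein, 0.5 mM IBMX) received graded doses of compound for 30 min at room temperature; human amylin served as positive control.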

Compound: CC[C@H](C)[C@H](NC(=O)[C@H](CC(N)=O)NC(=O)[C@@H](NC(=O)[C@H](CCCNC(=N)N)NC(=O)[C@@H]1CCCN1C(=O)[C@H](C)NC(=O)[C@@H](NC(=O)[C@H](CC(N)=O)NC(=O)[C@H](CC(=O)O)NC(=O)[C@H](CCCCN)NC(=O)[C@H](CC(=O)O)NC(=O)[C@H](CCCCN)NC(=O)[C@H](CC(=O)O)NC(=O)[C@@H](NC(=O)[C@H](Cc1ccccc1)NC(=O)[C@H](CCC(N)=O)NC(=O)[C@H](Cc1ccc(O)cc1)NC(=O)[C@@H](NC(=O)[C@H](CCC(N)=O)NC(=O)[C@H](Cc1c[nH]cn1)NC(=O)[C@H](C)NC(=O)[C@H](CC(C)C)NC(=O)[C@H](CCCNC(=N)N)NC(=O)[C@H](CCC(N)=O)NC(=O)[C@@H](NC(=O)[C@@H](NC(=O)[C@@H]1CSSC[C@H](NC(=O)CN)C(=O)N[C@@H](CCCNC(=N)N)C(=O)N[C@@H](Cc2ccccc2)C(=O)NCC(=O)N[C@@H]([C@@H](C)O)C(=O)N1)[C@@H](C)O)C(C)C)[C@@H](C)CC)[C@@H](C)O)C(C)C)[C@@H](C)O)C(=O)NCC(=O)N1CCC[C@H]1C(=O)N[C@@H](CC(N)=O)C(=O)NCC(=O)N1C[C@H](O)C[C@H]1C(N)=O [compound 81] (H-GCRFGTCTVQRLAHQIYQFTDKDKDNVAPRTNIGPNG[Hyp]-NH2; disulfide 2-7; N-terminus assumed)
- Max ThT signal (%) [1]: 4.000%
- EC50 (hAMY3 receptor): 0.015 nM

Compound: CC[C@H](C)[C@H](NC(=O)[C@H](CCC(N)=O)NC(=O)[C@H](Cc1c[nH]cn1)NC(=O)[C@H](C)NC(=O)[C@H](CC(C)C)NC(=O)[C@H](CCCNC(=N)N)NC(=O)[C@H](CCC(N)=O)NC(=O)[C@@H](NC(=O)[C@@H](NC(=O)[C@@H]1CSSC[C@H](NC(=O)CN)C(=O)N[C@@H](CCCNC(=N)N)C(=O)N[C@@H]([C@@H](C)O)C(=O)NCC(=O)N[C@@H]([C@@H](C)O)C(=O)N1)[C@@H](C)O)C(C)C)C(=O)N[C@@H](Cc1ccc(O)cc1)C(=O)N[C@@H](CCC(N)=O)C(=O)N[C@@H](Cc1ccccc1)C(=O)N[C@H](C(=O)N[C@@H](CC(=O)O)C(=O)N[C@@H](CCCCN)C(=O)N[C@@H](CC(=O)O)C(=O)N[C@@H](CCCCN)C(=O)N[C@@H](CC(=O)O)C(=O)N[C@@H](CC(N)=O)C(=O)N[C@H](C(=O)N[C@@H](C)C(=O)N1CCC[C@H]1C(=O)N[C@@H](CCCNC(=N)N)C(=O)N[C@H](C(=O)N[C@@H](CC(N)=O)C(=O)N[C@H](C(=O)NCC(=O)N1CCC[C@H]1C(=O)N[C@@H](CC(N)=O)C(=O)NCC(=O)N[C@@H](Cc1ccc(O)cc1)C(N)=O)C(C)C)[C@@H](C)O)C(C)C)[C@@H](C)O [compound 84] (H-GCRTGTCTVQRLAHQIYQFTDKDKDNVAPRTNVGPNGY-NH2; disulfide 2-7; N-terminus assumed)
- Max ThT signal (%) [1]: 14.200%
- EC50 (hAMY3 receptor): 0.015 nM

Compound: CC[C@H](C)[C@H](NC(=O)[C@H](CCC(N)=O)NC(=O)[C@H](Cc1c[nH]cn1)NC(=O)[C@H](C)NC(=O)[C@H](CC(C)C)NC(=O)[C@H](CCCNC(=N)N)NC(=O)[C@H](CCC(N)=O)NC(=O)[C@@H](NC(=O)[C@@H](NC(=O)[C@@H]1CSSC[C@H](NC(=O)CN)C(=O)N[C@@H](CCCNC(=N)N)C(=O)N[C@@H](Cc2ccccc2)C(=O)NCC(=O)N[C@@H]([C@@H](C)O)C(=O)N1)[C@@H](C)O)C(C)C)C(=O)N[C@@H](Cc1ccc(O)cc1)C(=O)N[C@@H](CCC(N)=O)C(=O)N[C@@H](Cc1ccccc1)C(=O)N[C@H](C(=O)N[C@@H](CC(=O)O)C(=O)N[C@@H](CCCCN)C(=O)N[C@@H](CC(=O)O)C(=O)N[C@@H](CCCCN)C(=O)N[C@@H](CC(=O)O)C(=O)N[C@@H](CC(N)=O)C(=O)N[C@H](C(=O)N[C@@H](C)C(=O)N1CCC[C@H]1C(=O)N[C@@H](CCCNC(=N)N)C(=O)N[C@H](C(=O)N[C@@H](CC(N)=O)C(=O)N[C@H](C(=O)NCC(=O)N1CCC[C@H]1C(=O)N[C@@H](CC(N)=O)C(=O)NCC(=O)N1C[C@H](O)C[C@H]1C(N)=O)C(C)C)[C@@H](C)O)C(C)C)[C@@H](C)O [compound 90] (H-GCRFGTCTVQRLAHQIYQFTDKDKDNVAPRTNVGPNG[Hyp]-NH2; disulfide 2-7; N-terminus assumed)
- Max ThT signal (%) [1]: 2.000%
- EC50 (hAMY3 receptor): 0.016 nM

Compound: CC[C@H](C)[C@H](NC(=O)[C@H](CCC(N)=O)NC(=O)[C@H](Cc1c[nH]cn1)NC(=O)[C@H](C)NC(=O)[C@H](CC(C)C)NC(=O)[C@H](CCCNC(=N)N)NC(=O)[C@H](CCC(N)=O)NC(=O)[C@@H](NC(=O)[C@@H](NC(=O)[C@@H]1CSSC[C@H](NC(=O)CN)C(=O)N[C@@H](CCCNC(=N)N)C(=O)N[C@@H](Cc2ccccc2)C(=O)NCC(=O)N[C@@H]([C@@H](C)O)C(=O)N1)[C@@H](C)O)C(C)C)C(=O)N[C@@H](Cc1ccc(O)cc1)C(=O)N[C@@H](CCC(N)=O)C(=O)N[C@@H](Cc1ccccc1)C(=O)N[C@H](C(=O)N[C@@H](CC(=O)O)C(=O)N[C@@H](CCCCN)C(=O)N[C@@H](CC(=O)O)C(=O)N[C@@H](CCCCN)C(=O)N[C@@H](CC(=O)O)C(=O)N[C@@H](CC(N)=O)C(=O)N[C@H](C(=O)N[C@@H](C)C(=O)N1CCC[C@H]1C(=O)N[C@@H](CCCNC(=N)N)C(=O)N[C@H](C(=O)N[C@@H](CC(N)=O)C(=O)N[C@H](C(=O)N[C@@H](CO)C(=O)N1CCC[C@H]1C(=O)N[C@@H](CC(N)=O)C(=O)NCC(=O)N[C@@H](Cc1ccc(O)cc1)C(N)=O)C(C)C)[C@@H](C)O)C(C)C)[C@@H](C)O [compound 98] (H-GCRFGTCTVQRLAHQIYQFTDKDKDNVAPRTNVSPNGY-NH2; disulfide 2-7; N-terminus assumed)
- Max ThT signal (%) [1]: 12.600%
- EC50 (hAMY3 receptor): 0.017 nM

Compound: CC[C@H](C)[C@H](NC(=O)[C@H](CCC(N)=O)NC(=O)[C@H](Cc1c[nH]cn1)NC(=O)[C@H](C)NC(=O)[C@H](CC(C)C)NC(=O)[C@H](CCCNC(=N)N)NC(=O)[C@H](CCC(N)=O)NC(=O)[C@@H](NC(=O)[C@@H](NC(=O)[C@@H]1CSSC[C@H](NC(=O)CN)C(=O)N[C@@H](CCCNC(=N)N)C(=O)N[C@@H]([C@@H](C)O)C(=O)NCC(=O)N[C@@H]([C@@H](C)O)C(=O)N1)[C@@H](C)O)C(C)C)C(=O)N[C@@H](Cc1ccc(O)cc1)C(=O)N[C@@H](CCC(N)=O)C(=O)N[C@@H](Cc1ccccc1)C(=O)N[C@H](C(=O)N[C@@H](CC(=O)O)C(=O)N[C@@H](CCCCN)C(=O)N[C@@H](CC(=O)O)C(=O)N[C@@H](CCCCN)C(=O)N[C@@H](CC(=O)O)C(=O)N[C@@H](CC(N)=O)C(=O)N[C@H](C(=O)N[C@@H](C)C(=O)N1CCC[C@H]1C(=O)N[C@@H](CCCNC(=N)N)C(=O)N[C@H](C(=O)N[C@@H](CC(N)=O)C(=O)N[C@H](C(=O)NCC(=O)N1CCC[C@H]1C(=O)N[C@@H](CCC(N)=O)C(=O)NCC(=O)N[C@@H](Cc1ccc(O)cc1)C(N)=O)C(C)C)[C@@H](C)O)C(C)C)[C@@H](C)O [compound 109] (H-GCRTGTCTVQRLAHQIYQFTDKDKDNVAPRTNVGPQGY-NH2; disulfide 2-7; N-terminus assumed)
- Max ThT signal (%) [1]: 9.300%
- EC50 (hAMY3 receptor): 0.02 nM
